Reference: paper PMC9262584 (2022)

What was measured:
Experiment in all cases: ITC
Settings in all cases: 50 mM KCl, 5 mM MgCl2 (RNA wash buffer); 50 mM Bis-Tris pH 6.1; individual ITC conditions in SI Figures S11/S12
[1] = system: pilM^75 (RNA, riboswitch) GAUAUCGACAAUACUAAACCAUCCGCGAGGGUGGGACGGAAAGCCUACAGGGUCUCUCUGAGACAGCCGGGAUGC
[2] = system: pilM^14-75 (RNA, riboswitch) GCUAAACCAUCCGCGAGGGUGGGACGGAAAGCCUACAGGGUCUCUCUGAGACAGCCGGGAUGC
[3] = system: pilM^77 (RNA, riboswitch) GAUAUCGACAAUACUAAACCAUCCGCGAGGGUGGGACGGAAAGCCUACAGGGUCUCUCUGAGACAGCCGGGAUGCCG
[4] = system: pilM^79 (RNA, riboswitch) GAUAUCGACAAUACUAAACCAUCCGCGAGGGUGGGACGGAAAGCCUACAGGGUCUCUCUGAGACAGCCGGGAUGCCGAA
[5] = system: pilM^80 (RNA, riboswitch) GAUAUCGACAAUACUAAACCAUCCGCGAGGGUGGGACGGAAAGCCUACAGGGUCUCUCUGAGACAGCCGGGAUGCCGAAA
[6] = system: pilM^82 (RNA, riboswitch) GAUAUCGACAAUACUAAACCAUCCGCGAGGGUGGGACGGAAAGCCUACAGGGUCUCUCUGAGACAGCCGGGAUGCCGAAAUA
[7] = system: pilM^83 (RNA, riboswitch) GAUAUCGACAAUACUAAACCAUCCGCGAGGGUGGGACGGAAAGCCUACAGGGUCUCUCUGAGACAGCCGGGAUGCCGAAAUAU
[8] = system: pilM^84 (RNA, riboswitch) GAUAUCGACAAUACUAAACCAUCCGCGAGGGUGGGACGGAAAGCCUACAGGGUCUCUCUGAGACAGCCGGGAUGCCGAAAUAUC
[9] = system: pilM^88 (RNA, riboswitch) GAUAUCGACAAUACUAAACCAUCCGCGAGGGUGGGACGGAAAGCCUACAGGGUCUCUCUGAGACAGCCGGGAUGCCGAAAUAUCACAA
[10] = system: pilM^91 (RNA, riboswitch) GAUAUCGACAAUACUAAACCAUCCGCGAGGGUGGGACGGAAAGCCUACAGGGUCUCUCUGAGACAGCCGGGAUGCCGAAAUAUCACAAUUC
[11] = system: pilM^93 (RNA, riboswitch) GAUAUCGACAAUACUAAACCAUCCGCGAGGGUGGGACGGAAAGCCUACAGGGUCUCUCUGAGACAGCCGGGAUGCCGAAAUAUCACAAUUCGU
[12] = system: pilM^95 (RNA, riboswitch) GAUAUCGACAAUACUAAACCAUCCGCGAGGGUGGGACGGAAAGCCUACAGGGUCUCUCUGAGACAGCCGGGAUGCCGAAAUAUCACAAUUCGUGA
[13] = system: pilM^96 (RNA, riboswitch) GAUAUCGACAAUACUAAACCAUCCGCGAGGGUGGGACGGAAAGCCUACAGGGUCUCUCUGAGACAGCCGGGAUGCCGAAAUAUCACAAUUCGUGAU
[14] = system: pilM^97 (RNA, riboswitch) GAUAUCGACAAUACUAAACCAUCCGCGAGGGUGGGACGGAAAGCCUACAGGGUCUCUCUGAGACAGCCGGGAUGCCGAAAUAUCACAAUUCGUGAUG
[15] = system: pilM^99 (RNA, riboswitch) GAUAUCGACAAUACUAAACCAUCCGCGAGGGUGGGACGGAAAGCCUACAGGGUCUCUCUGAGACAGCCGGGAUGCCGAAAUAUCACAAUUCGUGAUGCU
[16] = system: pilM^100 (RNA, riboswitch) GAUAUCGACAAUACUAAACCAUCCGCGAGGGUGGGACGGAAAGCCUACAGGGUCUCUCUGAGACAGCCGGGAUGCCGAAAUAUCACAAUUCGUGAUGCUC
[17] = system: pilM^101 (RNA, riboswitch) GAUAUCGACAAUACUAAACCAUCCGCGAGGGUGGGACGGAAAGCCUACAGGGUCUCUCUGAGACAGCCGGGAUGCCGAAAUAUCACAAUUCGUGAUGCUCG
[18] = system: pilM^102 (RNA, riboswitch) GAUAUCGACAAUACUAAACCAUCCGCGAGGGUGGGACGGAAAGCCUACAGGGUCUCUCUGAGACAGCCGGGAUGCCGAAAUAUCACAAUUCGUGAUGCUCGG
[19] = system: pilM^103 (RNA, riboswitch) GAUAUCGACAAUACUAAACCAUCCGCGAGGGUGGGACGGAAAGCCUACAGGGUCUCUCUGAGACAGCCGGGAUGCCGAAAUAUCACAAUUCGUGAUGCUCGGU
[20] = system: pilM^105 (RNA, riboswitch) GAUAUCGACAAUACUAAACCAUCCGCGAGGGUGGGACGGAAAGCCUACAGGGUCUCUCUGAGACAGCCGGGAUGCCGAAAUAUCACAAUUCGUGAUGCUCGGUCC
[21] = system: pilM^106 (RNA, riboswitch) GAUAUCGACAAUACUAAACCAUCCGCGAGGGUGGGACGGAAAGCCUACAGGGUCUCUCUGAGACAGCCGGGAUGCCGAAAUAUCACAAUUCGUGAUGCUCGGUCCC
[22] = system: pilM^109 (RNA, riboswitch) GAUAUCGACAAUACUAAACCAUCCGCGAGGGUGGGACGGAAAGCCUACAGGGUCUCUCUGAGACAGCCGGGAUGCCGAAAUAUCACAAUUCGUGAUGCUCGGUCCCGGC

KD [1]: > >100 μM
KD [2]: 0.012 ± 0.005 mM
KD [3]: 0.019 ± 0.019 mM
KD [4]: 0.017 ± 0.011 mM
KD [5]: 0.0085 ± 0.0014 mM
KD [6]: 0.00212 ± 0.00017 mM
KD [7]: 0.00167 ± 9e-05 mM
KD [8]: 0.00044 ± 6e-05 mM
KD [9]: 0.00025 ± 4e-05 mM
KD [10]: 0.00032 ± 5e-05 mM
KD [11]: 0.00038 ± 6e-05 mM
KD [12]: 0.0016 ± 0.0006 mM
KD [13]: 0.0029 ± 0.0015 mM
KD [14]: 0.0016 ± 0.0007 mM
KD [15]: 0.00025 ± 4e-05 mM
KD [16]: 0.0005 ± 0.0003 mM
KD [17]: 0.0013 ± 0.0005 mM
KD [18]: > >100 μM
KD [19]: > >100 μM
KD [20]: > >100 μM
KD [21]: > >100 μM
KD [22]: > >100 μM
Structure (SMILES): Nc1nc2c(ncn2[C@@H]2O[C@@H]3COP(=O)(O)O[C@H]4[C@@H](O)[C@H](n5cnc6c(N)ncnc65)O[C@@H]4COP(=O)(O)O[C@H]3[C@H]2O)c(=O)[nH]1
